Consider 15 compounds from ChEMBL document CHEMBL2146463, “Apoptosis-inducing effects of distichamine and narciprimine, rare alkaloids of the plant family Amaryllidaceae” (Bioorg Med Chem Lett, 2012).

The test system of test [1] is MCF7. The test is described as follows: Cytotoxicity against human MCF7 cells after 72 hrs by Calcein AM assay. In kind it is functional, cell-based. The conditions noted are these: MCF7, 72 h.
In another test the test system is G-361. The test is described as follows: Cytotoxicity against human G361 cells after 72 hrs by Calcein AM assay. In kind it is functional, cell-based. To be noted: G-361, 72 h.
Test [2] relates to CCRF-CEM. Description: Cytotoxicity against human CEM cells after 72 hrs by Calcein AM assay. In kind it is functional, cell-based.
Another test relates to HeLa. The test is described as follows: Cytotoxicity against human HeLa cells after 72 hrs by Calcein AM assay. In kind it is functional, cell-based.
For the next test, the system named is BJ. Description: Cytotoxicity against human BJ cells after 72 hrs by Calcein AM assay.
Another test deals with K562. The test is described as follows: Cytotoxicity against human K562 cells after 72 hrs by Calcein AM assay. To be noted: K562, 72 h. The class given is functional, cell-based.
Test [3] is described as follows: Induction of apoptosis in rat 5123TC cells assessed as apoptotic index at 25 uM after 48 hrs. The class given is functional.
Test [4] relates to MCF7. Description: Cytotoxicity against human MCF7 cells. The class given is functional, cell-based.
The next test concerns NCI-H460. Description: Cytotoxicity against human NCI-H460 cells by MTT assay. The class given is functional, cell-based.
Test [5] concerns CCRF-CEM. The test is described as follows: Induction of apoptosis in human CEM cells assessed as increase cleavage of PARP at 20 uM after 24 hrs by Western Blot analysis. In kind it is functional, cell-based. Background: A western blot detects proteins with antibodies after separation by electrophoresis.
Test [6] relates to CCRF-CEM. Description: Induction of apoptosis in human CEM cells assessed increase in expression of p53 after 24 hrs by Western Blot analysis. The class given is functional, cell-based.
Test [7] deals with CCRF-CEM. The test is described as follows: Induction of apoptosis in human CEM cells assessed decrease level of Mcl-1 at 20 uM after 24 hrs by Western Blot analysis. In kind it is functional, cell-based.
In test [8] the test system is CCRF-CEM. The test is described as follows: Induction of apoptosis in human CEM cells assessed activity of Bcl-2 at 1 to 20 uM after 24 hrs by Western Blot analysis. The class given is functional, cell-based.
Test [9] deals with CCRF-CEM. The test is described as follows: Cell cycle arrest in human CEM cells assessed as decrease accumulation at S phase at 1 to 20 uM after 24 hrs by FACS analysis. In kind it is functional, cell-based. In general terms: Flow cytometry measures light scatter and fluorescence of single cells or particles in a stream.
In test [10] the test system is CCRF-CEM. The test is described as follows: Induction of apoptosis in human CEM cells assessed increase in expression of p53 at 10 uM after 24 hrs by Western Blot analysis. In kind it is functional, cell-based.
Test [11] concerns CCRF-CEM. The test is described as follows: Induction of apoptosis in human CEM cells assessed as decrease level of procaspase-3 after 24 hrs by Western Blot analysis. The class given is functional, cell-based.
Test [12] has as its system CCRF-CEM. The test is described as follows: Cell cycle arrest in human CEM cells assessed as decrease accumulation at G0/G1 phase at 1 to 20 uM after 24 hrs by FACS analysis. The class given is functional, cell-based.
For test [13], the system named is CCRF-CEM. Description: Induction of apoptosis in human CEM cells assessed increase in expression of p53 at 20 uM after 24 hrs by Western Blot analysis. The class given is functional, cell-based.
The subject of test [14] is CCRF-CEM. Description: Induction of apoptosis in human CEM cells assessed as increase in activity of caspases-3/7 at 20 uM after 24 hrs by fluorescence analysis relative to control. In kind it is functional.
The subject of test [15] is CCRF-CEM. The test is described as follows: Induction of apoptosis in human CEM cells assessed as […] after 24 hrs by Western Blot analysis. In kind it is functional, cell-based.
In test [16] the test system is CCRF-CEM. The test is described as follows: Induction of apoptosis in human CEM cells assessed as increase cleavage of PARP at 10 uM after 24 hrs by Western Blot analysis. In kind it is functional, cell-based.
Test [17] relates to CCRF-CEM. Description: Cell cycle arrest in human CEM cells assessed as increase accumulation at G2/M phase after 24 hrs by FACS analysis. The class given is functional, cell-based.
The test system of test [18] is CCRF-CEM. Description: Induction of apoptosis in human CEM cells assessed as decrease level of procaspase-3 at 20 uM after 24 hrs by Western Blot analysis. The class given is functional, cell-based.
In test [19] the test system is CCRF-CEM. Description: Induction of apoptosis in human CEM cells assessed as decrease level of procaspase-3 at 10 uM after 24 hrs by Western Blot analysis. In kind it is functional, cell-based.
Test [20] relates to CCRF-CEM. The test is described as follows: Cell cycle arrest in human CEM cells assessed as accumulation at sub-G1 phase at 1 to 20 uM after 24 hrs by FACS analysis relative to control. The class given is functional.
Test [21] concerns CCRF-CEM. The test is described as follows: Induction of apoptosis in human CEM cells assessed as increase cleavage of PARP at 1 to 20 uM after 24 hrs by Western Blot analysis. In kind it is functional, cell-based.
The test system of test [22] is CCRF-CEM. The test is described as follows: Induction of apoptosis in human CEM cells assessed as decrease level of procaspase-3 at 1 to 20 uM after 24 hrs by Western Blot analysis. The class given is functional, cell-based.
The subject of test [23] is CCRF-CEM. The test is described as follows: Cell cycle arrest in human CEM cells assessed as accumulation at sub-G1 phase at 20 uM after 24 hrs by FACS analysis relative to control. The class given is functional, cell-based.
Test [24] relates to CCRF-CEM. Description: Induction of apoptosis in human CEM cells assessed decrease level of Mcl-1 at 1 to 20 uM after 24 hrs by Western Blot analysis. In kind it is functional, cell-based.
Test [25] in a line: Induction of apoptosis in rat 5123TC cells after 48 hrs. To be noted: read-out: ED50 (the source's name). In kind it is functional.

Structures are written as SMILES. Active and inactive are the calls of the source. The calls are words filed in the database; no cut-off is given here. A value given as a limit tells only on which side of the number the result lay.

In general, IC50 refers to the midpoint of a concentration-inhibition curve. On to `COc1ccc2c3c1O[C@H]1C[C@@H](O)C=C[C@@]31CCN(C)C2` [GALANTAMINE], for which the IC50 in the test with MCF7 [1], in the test with G-361, with CCRF-CEM [2], in the test on HeLa, in the test with BJ and in the test with K562 was > 50 µM each time.
As for `COc1c2c(cc3c1[C@@H](O)N1CC[C@]34[C@H]3O[C@H]3[C@H](OC)C[C@@H]14)OCO2`, in test [3], the Activity worked out at 25%.
As for `CN[C@@H]1C[C@H]2O[C@@](C)([C@@H]1OC)n1c3ccccc3c3c4c(c5c6ccccc6n2c5c31)C(=O)NC4` [STAUROSPORINE], the IC50 with CCRF-CEM [2] is 0.023 µM.
Turning to `O[C@H]1[C@H]2c3cc4c(cc3CN3CCC(=C[C@@H]1O)[C@H]23)OCO4` [LYCORINE], the half-inhibitory concentration (IC50) in the test with MCF7 [1] is 13 µM; in the test on G-361, 5 µM; in the test on CCRF-CEM [2], 1.6 µM; with HeLa it was 10.6 µM; in the test on BJ, 1.9 µM; with K562, 3.6 µM. In the test with CCRF-CEM [2], the Activity entry is “Dose-dependent effect”.
Consider `O=C1N[C@H]2[C@H](O)[C@H](O)[C@@H](O)[C@H](O)[C@@H]2c2cc3c(c(O)c21)OCO3` [PANCRATISTATIN], for which, in the test on MCF7 [4], the IC50 was 0.071 µM.
`O=C(O[C@H]1[C@H](O)[C@@H](O)[C@@H](O)[C@@H]2NC(=O)c3c(cc4c(c3O)OCO4)[C@H]21)c1ccccc1` [PHENPANSTATIN] gave an IC50 in the test with NCI-H460 of 0.00023 µM.
`O=C1N[C@@H]2C(=C[C@H](O)[C@@H](O)[C@H]2O)c2cc3c(c(O)c21)OCO3` [NARCICLASINE] displayed an IC50 in the test with MCF7 [4] of 0.01 µM.
Take `COC1=CC(=O)[C@@]23CCN(Cc4c2cc2c(c4OC)OCO2)[C@@H]3C1` [DISTICHAMINE]: the result in the test with CCRF-CEM [5], with CCRF-CEM [7], in the test on CCRF-CEM [9], in the test with CCRF-CEM [10], in the test on CCRF-CEM [12] and in the test with CCRF-CEM [13] was Active. Also, the result in the test on CCRF-CEM [16], with CCRF-CEM [18] and in the test on CCRF-CEM [19] was Active. Moreover, the Activity entry in the test with CCRF-CEM [6] is “Dose-dependent effect”; in the test with CCRF-CEM [11], “Dose-dependent effect”; with CCRF-CEM [15], “Dose-dependent effect”; in the test on CCRF-CEM [17], “Dose-dependent effect”; with CCRF-CEM [20] it was 23.7%. Moreover, the IC50 in the test on MCF7 [1] is 2.3 µM; with G-361, 14.7 µM; with CCRF-CEM [2] it was 4.5 µM; in the test with HeLa, 2.2 µM; in the test on BJ, 10.5 µM; with K562, 4.1 µM. Moreover, the outcome in the test on CCRF-CEM [8] was inactive. The “fold change (FC)” value with CCRF-CEM [14] turned out to be 12.5.
In the case of `COc1cc2c(cc1OC)[C@H]1[C@H]3C(=CC[C@H]1OC2=O)CCN3C` [HOMOLYCORINE], the IC50 with MCF7 [1] is > 50 µM; with G-361, 32.9 µM; with CCRF-CEM [2], 15 µM; in the test with HeLa, > 50 µM; with BJ it was 20.8 µM; in the test on K562 it was 19.4 µM.
`COc1ccc2c3c1O[C@H]1CC(=O)C=C[C@@]31CCN(C)C2` [NARWEDINE]: the IC50 is > 50 µM in the test with MCF7 [1]; > 50 µM with G-361; 31.6 µM with CCRF-CEM [2]; > 50 µM in the test on HeLa; > 50 µM with BJ; > 50 µM with K562.
In the case of `O=c1[nH]c2c(O)cccc2c2cc3c(c(O)c12)OCO3` [NARCIPRIMINE], the outcome in the test on CCRF-CEM [21], in the test on CCRF-CEM [8], with CCRF-CEM [22] and with CCRF-CEM [24] was inactive. The Activity result in the test with CCRF-CEM [6] and with CCRF-CEM [17] was “Dose-dependent effect” in each case. The IC50 is > 50 µM in the test on MCF7 [1]; > 50 µM with G-361; 13.3 µM in the test with CCRF-CEM [2]; > 50 µM in the test on HeLa; 7.9 µM in the test on BJ; > 50 µM in the test with K562. In addition, the outcome in the test on CCRF-CEM [9], in the test with CCRF-CEM [12] and with CCRF-CEM [23] was Active. Besides, the “fold change (FC)” value in the test with CCRF-CEM [14] worked out at 1.8.
Consider `CO[C@H]1C=C[C@@]23c4cc5c(cc4CN(C[C@@H]2O)[C@H]3C1)OCO5`, for which the Activity in test [3] amounted to 90%. Also, in [25], the EC50 turned out to be 12.5 µM.
Regarding `COc1c2c(cc3c1OCO3)[C@]13C=C[C@H](OC)C[C@H]1N(CC3)C2` [BUPHANIDRINE], the concentration for half-maximal inhibition (IC50) with MCF7 [1] was > 50 µM; in the test with G-361 it was > 50 µM; in the test on CCRF-CEM [2], > 50 µM; in the test on HeLa, > 50 µM; in the test with BJ it was 26.2 µM; with K562, > 50 µM.
For `COc1ccc2c3c1O[C@H]1C[C@@H](O)CC[C@]31CCN(C)C2` [LYCORAMINE], the IC50 in the test with MCF7 [1], in the test on G-361, in the test with CCRF-CEM [2], in the test on HeLa, with BJ and with K562 was > 50 µM in each case.
As for `CO[C@@H]1C=C[C@@]23c4cc5c(cc4CN(C[C@@H]2O)[C@H]3C1)OCO5` [(+)-HAEMANTHAMINE], the concentration for half-maximal inhibition (IC50) with MCF7 [1] is 8.1 µM; in the test on G-361 it was 3.7 µM; in the test with CCRF-CEM [2] it was 2.1 µM; in the test on HeLa it was 7 µM; in the test with BJ, 2.7 µM; in the test with K562, 3.4 µM. Besides, the Activity in [3] is reported as 90%. For the same compound, the EC50 in test [25] was determined as 15 µM.
